*1 amine or outer side, *2 acyl side, *3 side chain or, on linkers, in order; H or OH if unused. Where a SMILES comes first, the peptide text is derived from it. Bridges are numbered along the chain shown (N, C = ends). [ ]: non-standard residue; d: D form. The star is where a group is joined. NMeHph(3-OMe-4-CONHMe) = CNC(=O)c1ccc(CC[C@H](NC)C(=O)O)cc1OC; X11 = CNC(=O)c1ccc(CCN(CC(=O)[*:2])[*:1])cc1OC; X16 = CC(C)C(C)[C@H](N[*:1])C(=O)[*:2]; Hyp = O=C(O)[C@@H]1C[C@@H](O)CN1; NMeF = CN[C@@H](Cc1ccccc1)C(=O)O; NMeGABA = CN(CCCC(=O)[*:2])[*:1]; NMeI = CC[C@H](C)[C@H](NC)C(=O)O; NMeL = CN[C@@H](CC(C)C)C(=O)O; dNMeL = CN[C@H](CC(C)C)C(=O)O; NMeAbu = CC[C@H](NC)C(=O)O; NMeA = CN[C@@H](C)C(=O)O; Piperidide = C1CCN(*)CC1; Abu = CC[C@H](N)C(=O)O; X8 = C1COC[C@@H](C*)N1; NBuGly = CCCCNCC(=O)O; Ethyl(2-OH) = OCC*; Sar = CNCC(=O)O; tBu = CC(C)(C)*

The series is described as follows: in vitro. To be noted: human, Caco-2, Caco-2 (cm/sec).
As usually defined, the Papp is the rate of passage across a membrane or cell layer, normalised by area and donor concentration. Low readings indicate slow passage, high ones fast passage. Compound `CC[C@H](C)[C@@H]1NC(=O)[C@H](CC(C)C)N(C)C(=O)[C@@H](CC(C)C)NC(=O)C[C@@H](C(=O)N2CCCCC2)NC(=O)[C@H](CC(C)C)N(C)C(=O)[C@H](Cc2ccccc2)N(C)C(=O)[C@H](COC(C)(C)C)NC(=O)CN(CCc2ccc(C(=O)NC)c(OC)c2)C(=O)CN(C)C(=O)[C@H]([C@@H](C)O)NC(=O)[C@H](CC(C)C)N(C)C1=O` [AP221] ([dL][NMeL]I[NMeL]T[Sar][X11]S(tBu)[NMeF][NMeL]D-Piperidide; lactam N-11) came in with a Papp of 0.28 ×10⁻⁶ cm/s.
Next, `CC[C@H](C)[C@@H]1NC(=O)[C@H](CC(C)C)N(C)C(=O)[C@@H](C)NC(=O)C[C@@H](C(=O)N2CCCCC2)NC(=O)[C@H](CC(C)C)N(C)C(=O)[C@H](Cc2ccccc2)N(C)C(=O)[C@H](COC(C)(C)C)NC(=O)[C@H](CC(C)C)N(C)C(=O)[C@H](CC)N(C)C(=O)[C@H]([C@@H](C)O)NC(=O)CN(CCc2ccc(C(=O)NC)c(OC)c2)C1=O` [AP222] ([dA][NMeL]I[X11]T[NMeAbu][NMeL]S(tBu)[NMeF][NMeL]D-Piperidide; lactam N-11): 0.31 ×10⁻⁶ cm/s; `CC[C@H]1C(=O)N[C@@H](CC(C)C)C(=O)N(C)[C@@H](CC(C)C)C(=O)N(C)[C@@H](Cc2ccccc2)C(=O)N[C@@H](CC(C)C)C(=O)N(C)[C@@H](CC(C)C)C(=O)N(CCc2ccc(C(=O)NC)c(OC)c2)CC(=O)N[C@@H]([C@@H](C)O)C(=O)N(C)CC(=O)N(C)[C@@H](CC(C)C)C(=O)N[C@H](C(=O)N2CCCCC2)CC(=O)N1C` [AP223] ([NMeAbu]L[NMeL][NMeF]L[NMeL][X11]T[Sar][NMeL]D-Piperidide; lactam N-11): 1.6 ×10⁻⁶ cm/s.
Next, `CC[C@H](C)[C@@H]1NC(=O)[C@H](CC(C)C)N(C)C(=O)CCCN(C)C(=O)C[C@@H](C(=O)N2CCCCC2)NC(=O)[C@H](CC(C)C)N(C)C(=O)[C@H](CC(C)C)N(C)C(=O)[C@H]([C@@H](C)O)NC(=O)[C@H](CC(C)C)N(C)C(=O)[C@H](COC(C)(C)C)NC(=O)[C@H](Cc2ccccc2)N(C)C(=O)[C@H](CCc2ccc(C(=O)NC)c(OC)c2)N(C)C1=O` [AP227] ([NMeGABA][NMeL]I[NMeHph(3-OMe-4-CONHMe)][NMeF]S(tBu)[NMeL]T[NMeL][NMeL]D-Piperidide; lactam N-11): 0.48 ×10⁻⁶ cm/s.
With `CC[C@H](C)[C@@H]1NC(=O)[C@H](CC(C)C)N(C)C(=O)CCCN(C)C(=O)C[C@@H](C(=O)N2CCCCC2)NC(=O)[C@H](CC(C)C)N(C)C(=O)[C@H](CCc2ccc(C(=O)NC)c(OC)c2)N(C)C(=O)[C@H]([C@@H](C)O)NC(=O)[C@H](CC(C)C)N(C)C(=O)[C@H](COC(C)(C)C)NC(=O)[C@H](CC(C)C)N(C)C(=O)[C@H](Cc2ccccc2)N(C)C1=O` [AP228] ([NMeGABA][NMeL]I[NMeF][NMeL]S(tBu)[NMeL]T[NMeHph(3-OMe-4-CONHMe)][NMeL]D-Piperidide; lactam N-11), the Papp is 0.84 ×10⁻⁶ cm/s.
Next, `CC[C@@H]1NC(=O)[C@H](CCc2ccc(C(=O)NC)c(OC)c2)N(C)C(=O)[C@H](CC(C)C)N(C)C(=O)[C@H](CC(C)C)NC(=O)[C@H](C)N(C)C(=O)C[C@@H](C(=O)N2CCCCC2)NC(=O)[C@H](CC(C)C)N(C)C(=O)CN(C)C(=O)[C@H]([C@@H](C)O)NC(=O)[C@H](CC(C)C)N(C)C(=O)[C@H](Cc2ccccc2)N(C)C1=O` [AP229] ([NMeA]L[NMeL][NMeHph(3-OMe-4-CONHMe)][Abu][NMeF][NMeL]T[Sar][NMeL]D-Piperidide; lactam N-11): 0.43 ×10⁻⁶ cm/s; `CNC(=O)c1ccc(CC[C@H]2C(=O)N(C)[C@@H](CC(C)C)C(=O)N[C@@H]([C@@H](C)O)C(=O)N(C)CC(=O)N(C)[C@@H](CC(C)C)C(=O)N[C@H](C(=O)N3CCCCC3)CC(=O)N(C)[C@@H](C)C(=O)N[C@@H](CC(C)C)C(=O)N(C)[C@@H](CC(C)C)C(=O)N(C)[C@@H](Cc3ccccc3)C(=O)N[C@@H](CC(C)C)C(=O)N2C)cc1OC` [AP230] ([NMeA]L[NMeL][NMeF]L[NMeHph(3-OMe-4-CONHMe)][NMeL]T[Sar][NMeL]D-Piperidide; lactam N-11): 0.96 ×10⁻⁶ cm/s.
To `CCCCN1CC(=O)N(C)[C@@H](Cc2ccccc2)C(=O)N(C)[C@@H](CC(C)C)C(=O)N[C@@H](COC(C)(C)C)C(=O)N(C)[C@@H](CC(C)C)C(=O)N[C@H](C(=O)N2CCCCC2)CC(=O)N(C)CC(=O)N(C)[C@@H](CCc2ccc(C(=O)NC)c(OC)c2)C(=O)N[C@@H](C(C)C)C(=O)N(C)[C@@H](CC(C)C)C(=O)N[C@@H]([C@@H](C)O)C1=O` [AP231] ([Sar][NMeHph(3-OMe-4-CONHMe)]V[NMeL]T[NBuGly][NMeF][NMeL]S(tBu)[NMeL]D-Piperidide; lactam N-11) belongs 1 ×10⁻⁶ cm/s; to `CCCCN1CC(=O)N(C)[C@@H](Cc2ccccc2)C(=O)N[C@@H]([C@@H](C)CC)C(=O)N(C)[C@@H](CC(C)C)C(=O)N[C@@H]([C@@H](C)O)C(=O)N(C)CC(=O)N(C)[C@@H](CCc2ccc(C(=O)NC)c(OC)c2)C(=O)N(C)[C@@H](CC(C)C)C(=O)N[C@@H](COC(C)(C)C)C(=O)N(C)[C@@H](CC(C)C)C(=O)N[C@H](C(=O)N2CCCCC2)CC1=O` [AP232] ([NBuGly][NMeF]I[NMeL]T[Sar][NMeHph(3-OMe-4-CONHMe)][NMeL]S(tBu)[NMeL]D-Piperidide; lactam N-11), 2 ×10⁻⁶ cm/s; to `CC[C@H](C)[C@@H]1NC(=O)[C@H](CC(C)C)N(C)C(=O)[C@@H]2C[C@@H](OCCO)CN2C(=O)[C@H]([C@@H](C)O)NC(=O)[C@H](CC(C)C)N(C)C(=O)[C@H](CC(C)C)NC(=O)[C@H](C(C)C(C)C)NC(=O)[C@@H](CC(C)C)N(C)C(=O)C[C@@H](C(=O)N2CCCCC2)NC(=O)[C@H](CC(C)C)NC(=O)[C@H](CC(C)C)N(C)C1=O` (stereo partly drawn) [AP233] ([dNMeL][X16]L[NMeL]T[Hyp](Ethyl(2-OH))[NMeL]I[NMeL]LD-Piperidide; lactam N-11), 3 ×10⁻⁶ cm/s.
To `CC(C)C[C@H]1NC(=O)C[C@@H](C(=O)N2CCCCC2)NC(=O)[C@H](CC(C)C)N(C)C(=O)[C@H](Cc2ccccc2)NC(=O)[C@H](Cc2ccccc2)N(C)C(=O)[C@H]([C@@H](C)O)NC(=O)[C@H](CC(C)C)N(C)C(=O)[C@@H]2C[C@@H](OCCO)CN2C(=O)[C@H](CC(C)C)N(C)C(=O)[C@H](COC(C)(C)C)NC(=O)[C@@H]2CCCN2C1=O` [AP234] ([dL]PS(tBu)[NMeL][Hyp](Ethyl(2-OH))[NMeL]T[NMeF]F[NMeL]D-Piperidide; lactam N-11) belongs 1.3 ×10⁻⁶ cm/s; to `CC(C)C[C@@H]1NC(=O)C[C@@H](C(=O)N2CCCCC2)NC(=O)[C@H](CC(C)C)N(C)C(=O)[C@H](Cc2ccccc2)NC(=O)[C@H](Cc2ccccc2)N(C)C(=O)[C@H]([C@@H](C)O)NC(=O)[C@H](CC(C)C)N(C)C(=O)[C@@H]2C[C@@H](OCCO)CN2C(=O)[C@H](CC(C)C)N(C)C(=O)[C@H](COC(C)(C)C)NC(=O)[C@H](CC(C)C)N(C)C1=O` [AP235] (L[NMeL]S(tBu)[NMeL][Hyp](Ethyl(2-OH))[NMeL]T[NMeF]F[NMeL]D-Piperidide; lactam N-11), 1.5 ×10⁻⁶ cm/s; to `CC(C)C[C@@H]1NC(=O)[C@H](CC(C)C)N(C)C(=O)[C@H](CC(C)C)N(C)C(=O)[C@H](COC(C)(C)C)NC(=O)[C@H](CC(C)C)N(C)C(=O)[C@@H](C(C)C)NC(=O)C[C@@H](C(=O)N2CCCCC2)NC(=O)[C@H](CC(C)C)N(C)C(=O)[C@H](Cc2ccccc2)NC(=O)[C@@H]2C[C@@H](OCCO)CN2C(=O)[C@H]([C@@H](C)O)NC1=O` [AP237] ([dV][NMeL]S(tBu)[NMeL][NMeL]LT[Hyp](Ethyl(2-OH))F[NMeL]D-Piperidide; lactam N-11), 1.3 ×10⁻⁶ cm/s.
As to `CC[C@H](C)[C@H]1C(=O)N2CCC[C@H]2C(=O)N(C)[C@@H](CC(C)C)C(=O)N[C@@H](COC(C)(C)C)C(=O)N2C[C@H](OCCO)C[C@H]2C(=O)N[C@@H]([C@@H](C)O)C(=O)N(C)[C@@H](CC(C)C)C(=O)N(C)[C@@H](CC(C)C)C(=O)N(C)[C@@H](CC(C)C)C(=O)N[C@H](C(=O)N2CCCCC2)CC(=O)N[C@H](CC(C)C)C(=O)N1C` [AP238] ([dL][NMeI]P[NMeL]S(tBu)[Hyp](Ethyl(2-OH))T[NMeL][NMeL][NMeL]D-Piperidide; lactam N-11), the Papp came to 2 ×10⁻⁶ cm/s.
Next, `CCCCN1CC(=O)N(C)[C@@H](CC(C)C)C(=O)N[C@@H](COC[C@@H]2COCCN2)C(=O)N(C)[C@@H](CC(C)C)C(=O)N(C)[C@@H](CC(C)C)C(=O)N[C@H](C(=O)N2CCCCC2)CC(=O)N[C@H](C(C)C)C(=O)N(C)[C@@H](Cc2ccccc2)C(=O)N[C@@H](CC(C)C)C(=O)N(C)[C@@H](CC)C(=O)N[C@@H]([C@@H](C)O)C1=O` [AP239] ([dV][NMeF]L[NMeAbu]T[NBuGly][NMeL]S(X8)[NMeL][NMeL]D-Piperidide; lactam N-11): 0.18 ×10⁻⁶ cm/s; `CCCCN1CC(=O)N(C)[C@@H](CC)C(=O)N[C@@H](COC[C@@H]2COCCN2)C(=O)N(C)[C@@H](Cc2ccccc2)C(=O)N(C)[C@@H](CC)C(=O)N[C@H](C(=O)N2CCCCC2)CC(=O)N[C@H](CC(C)C)C(=O)N(C)[C@@H](CC(C)C)C(=O)N[C@@H]([C@@H](C)CC)C(=O)N(C)[C@@H](CC(C)C)C(=O)N[C@@H]([C@@H](C)O)C1=O` [AP240] ([dL][NMeL]I[NMeL]T[NBuGly][NMeAbu]S(X8)[NMeF][NMeAbu]D-Piperidide; lactam N-11): 0.08 ×10⁻⁶ cm/s; `CC[C@H](C)[C@@H]1NC(=O)[C@H](CC(C)C)N(C)C(=O)CCCN(C)C(=O)C[C@@H](C(=O)N2CCCCC2)NC(=O)[C@H](CC(C)C)N(C)C(=O)[C@H](CC(C)C)N(C)C(=O)[C@H]([C@@H](C)O)NC(=O)[C@H](CC(C)C)N(C)C(=O)[C@H](COC[C@@H]2COCCN2)NC(=O)[C@H](CC(C)C)N(C)C(=O)[C@H](Cc2ccccc2)N(C)C1=O` [AP241] ([NMeGABA][NMeL]I[NMeF][NMeL]S(X8)[NMeL]T[NMeL][NMeL]D-Piperidide; lactam N-11): 0.05 ×10⁻⁶ cm/s.
Next, `CCCCN1CC(=O)N(C)[C@@H](CC(C)C)C(=O)N[C@H](C(=O)N2CCCCC2)CC(=O)N(C)[C@@H](CC)C(=O)N[C@@H](CC(C)C)C(=O)N(C)[C@@H](CC(C)C)C(=O)N(C)[C@@H](Cc2ccccc2)C(=O)N[C@@H](COC[C@@H]2COCCN2)C(=O)N(C)[C@@H](CC)C(=O)N(C)[C@@H](CC(C)C)C(=O)N[C@@H]([C@@H](C)O)C1=O` [AP242] ([NMeAbu]L[NMeL][NMeF]S(X8)[NMeAbu][NMeL]T[NBuGly][NMeL]D-Piperidide; lactam N-11): 1.2 ×10⁻⁶ cm/s.
